From US9833497B2, “Human originated EGF domain proteins and use of the same” (CHENGDU SOURCEBIO LIMITED-LIABILITY COMPANY, priority 2013, dated 2017)

Test system: Citrobacter diversus
Experiment: MIC against Gram-negative bacteria: Citrobacter diversus
Type: cell-based
Settings: 10 h cultivation at 37° C., 5×10^5 CFU/mL, two-fold serial dilution
Summary of the method: (§1)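 LB broth cultures at McFarland 0.5, spun down, resuspended, diluted to 5×10^5 CFU/mL final. Two-fold serial dilutions of purified human EGF domain proteins, triplicate. 37° C, 175 rpm shaking. Endpoint: no visible growth.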

In order of falling “MIC C. diversus” value:
1. PRT1104 (EVDECASDPCKNEATCLNEIGRYTCICPHNYSGVNCE; listed as Homo sapiens)  25 µg/mL
2. PRT1111 (SEDMCSPDPCFNGGTCLVTWNDFHCTCPANFTGPTCA; listed as Homo sapiens)  12.5 µg/mL
3. PRT1105 (EIDECWSQPCLNGATCQDALGAYFCDCAPGFLGDHCE; listed as Homo sapiens)  12.5 µg/mL

Test system: Proteus vulgaris
Experiment: MIC against Gram-negative bacteria: Proteus vulgaris
Type: cell-based
Settings: 10 h cultivation at 37° C., 5×10^5 CFU/mL, two-fold serial dilution
Summary of the method: as §1

In order of rising “MIC P. vulgaris” value:
1. PRT1105 (EIDECWSQPCLNGATCQDALGAYFCDCAPGFLGDHCE; listed as Homo sapiens)  12.5 µg/mL
2. PRT1111 (SEDMCSPDPCFNGGTCLVTWNDFHCTCPANFTGPTCA; listed as Homo sapiens)  25 µg/mL
3. PRT1104 (EVDECASDPCKNEATCLNEIGRYTCICPHNYSGVNCE; listed as Homo sapiens)  50 µg/mL

Test system: Proteus mirabilis
Experiment: MIC against Gram-negative bacteria: Proteus mirabilis
Type: cell-based
Settings: 10 h cultivation at 37° C., 5×10^5 CFU/mL, two-fold serial dilution
Summary of the method: as §1

In order of rising “MIC P. mirabilis” value:
1. PRT1104 (EVDECASDPCKNEATCLNEIGRYTCICPHNYSGVNCE; listed as Homo sapiens)  25 µg/mL
2. PRT1111 (SEDMCSPDPCFNGGTCLVTWNDFHCTCPANFTGPTCA; listed as Homo sapiens)  50 µg/mL
3. PRT1105 (EIDECWSQPCLNGATCQDALGAYFCDCAPGFLGDHCE; listed as Homo sapiens)  50 µg/mL

Test system: Enterobacter cloacae
Experiment: MIC against Gram-negative bacteria: Enterobacter cloacae
Type: cell-based
Settings: 10 h cultivation at 37° C., 5×10^5 CFU/mL, two-fold serial dilution
Summary of the method: as §1

In order of rising “MIC E. cloacae” value:
1. PRT1111 (SEDMCSPDPCFNGGTCLVTWNDFHCTCPANFTGPTCA; listed as Homo sapiens)  25 µg/mL
2. PRT1104 (EVDECASDPCKNEATCLNEIGRYTCICPHNYSGVNCE; listed as Homo sapiens)  25 µg/mL
3. PRT1105 (EIDECWSQPCLNGATCQDALGAYFCDCAPGFLGDHCE; listed as Homo sapiens)  50 µg/mL

Test system: E. coli BL21
Experiment: MIC against Gram-negative bacteria: E. coli BL21
Type: cell-based
Settings: 10 h cultivation at 37° C., 5×10^5 CFU/mL, two-fold serial dilution
Summary of the method: as §1

In order of rising “MIC E. coli BL21” value:
1. PRT1104 (EVDECASDPCKNEATCLNEIGRYTCICPHNYSGVNCE; listed as Homo sapiens)  12.5 µg/mL
2. PRT1105 (EIDECWSQPCLNGATCQDALGAYFCDCAPGFLGDHCE; listed as Homo sapiens)  25 µg/mL
3. PRT1111 (SEDMCSPDPCFNGGTCLVTWNDFHCTCPANFTGPTCA; listed as Homo sapiens)  50 µg/mL

Test system: Klebsiella pneumonia
Experiment: MIC against Gram-negative bacteria: Klebsiella pneumonia
Type: cell-based
Settings: 10 h cultivation at 37° C., 5×10^5 CFU/mL, two-fold serial dilution
Summary of the method: as §1

In order of rising “MIC K. pneumonia” value:
1. PRT1104 (EVDECASDPCKNEATCLNEIGRYTCICPHNYSGVNCE; listed as Homo sapiens)  12.5 µg/mL
2. PRT1105 (EIDECWSQPCLNGATCQDALGAYFCDCAPGFLGDHCE; listed as Homo sapiens)  12.5 µg/mL
3. PRT1111 (SEDMCSPDPCFNGGTCLVTWNDFHCTCPANFTGPTCA; listed as Homo sapiens)  50 µg/mL

Test system: Moraxella catarrhalis
Experiment: MIC against Gram-negative bacteria: Moraxella catarrhalis
Type: cell-based
Settings: 10 h cultivation at 37° C., 5×10^5 CFU/mL, two-fold serial dilution
Summary of the method: as §1

In order of rising “MIC M. catarrhalis” value:
1. PRT1104 (EVDECASDPCKNEATCLNEIGRYTCICPHNYSGVNCE; listed as Homo sapiens)  12.5 µg/mL
2. PRT1111 (SEDMCSPDPCFNGGTCLVTWNDFHCTCPANFTGPTCA; listed as Homo sapiens)  25 µg/mL
3. PRT1105 (EIDECWSQPCLNGATCQDALGAYFCDCAPGFLGDHCE; listed as Homo sapiens)  25 µg/mL

Test system: Serratia marcescens
Experiment: MIC against Gram-negative bacteria: Serratia marcescens
Type: cell-based
Settings: 10 h cultivation at 37° C., 5×10^5 CFU/mL, two-fold serial dilution
Summary of the method: as §1

In order of falling “MIC S. marcescens” value:
1. PRT1105 (EIDECWSQPCLNGATCQDALGAYFCDCAPGFLGDHCE; listed as Homo sapiens)  50 µg/mL
2. PRT1104 (EVDECASDPCKNEATCLNEIGRYTCICPHNYSGVNCE; listed as Homo sapiens)  25 µg/mL
3. PRT1111 (SEDMCSPDPCFNGGTCLVTWNDFHCTCPANFTGPTCA; listed as Homo sapiens)  12.5 µg/mL

Test system: Pseudomonas aeruginosa
Experiment: MIC against Gram-negative bacteria: Pseudomonas aeruginosa
Type: cell-based
Settings: 10 h cultivation at 37° C., 5×10^5 CFU/mL, two-fold serial dilution
Summary of the method: as §1

In order of rising “MIC P. aeruginosa” value:
1. PRT1111 (SEDMCSPDPCFNGGTCLVTWNDFHCTCPANFTGPTCA; listed as Homo sapiens)  12.5 µg/mL
2. PRT1104 (EVDECASDPCKNEATCLNEIGRYTCICPHNYSGVNCE; listed as Homo sapiens)  50 µg/mL
3. PRT1105 (EIDECWSQPCLNGATCQDALGAYFCDCAPGFLGDHCE; listed as Homo sapiens)  50 µg/mL

Test system: Aeromonas hydrophila
Experiment: MIC against Gram-negative bacteria: Aeromonas hydrophila
Type: cell-based
Settings: 10 h cultivation at 37° C., 5×10^5 CFU/mL, two-fold serial dilution
Summary of the method: as §1

In order of rising “MIC A. hydrophila” value:
1. PRT1111 (SEDMCSPDPCFNGGTCLVTWNDFHCTCPANFTGPTCA; listed as Homo sapiens)  25 µg/mL
2. PRT1105 (EIDECWSQPCLNGATCQDALGAYFCDCAPGFLGDHCE; listed as Homo sapiens)  25 µg/mL
3. PRT1104 (EVDECASDPCKNEATCLNEIGRYTCICPHNYSGVNCE; listed as Homo sapiens)  50 µg/mL

Test system: E. coli DH5α
Experiment: Antibacterial activity: MIC and growth curve against E. coli DH5α in 96-well plate
Type: cell-based
Settings: minimal inhibitory concentration against E. coli DH5α; 96-well plate, 5×10^5 CFU/mL, 37° C., judged after 8 h
Summary of the method: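 Log-phase DH5α (OD600 about 0.5, 37° C, 185 rpm in LB) was pelleted, resuspended in fresh LB and seeded at 5×10^5 CFU/mL with recombinant protein at 50, 25 and 12.5 μg/mL (two-fold series), in triplicate. Plates were shaken at 175 rpm, 37° C, and OD600 was read every 30 min. MIC was the lowest concentration with no growth.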

In order of falling MIC:
1. PRT1104 (EVDECASDPCKNEATCLNEIGRYTCICPHNYSGVNCE; listed as Homo sapiens)  50 µg/mL
2. PRT1111 (SEDMCSPDPCFNGGTCLVTWNDFHCTCPANFTGPTCA; listed as Homo sapiens)  12.5 µg/mL
3. PRT1105 (EIDECWSQPCLNGATCQDALGAYFCDCAPGFLGDHCE; listed as Homo sapiens)  12.5 µg/mL
